Here are results for one compound from patent US20230270148A1, “BITTER BLOCKERS AND RELATED METHODS OF USE” (Conagen Inc., priority 2020, published 2023).

The subject of one assay is THC nanoemulsion. The assay is described as follows: Sensory evaluation: bitterness reduction of THC. Type of assay: in vivo. Conditions: dosage 50 or 100 ppm per sample. How it is done:
The bitterness blocker candidates listed in Table 1 were prepared into a 1% sample solution with propylene glycol and heated to ensure complete solubilization. […] THC was first emulsified into a water-soluble nanoemulsion (10 mg THC per serving), to which was added the respective sample solution. A trained sensory evaluator was asked to estimate the perceived bitterness reduction against the control, as well as to provide comments on how the addition of the individual sample solution modulated the taste and mouth feel profile of the resulting nanoemulsion.

In assay [1] the test system is bitter-responsive human taste bud tissue-derived cells (hTBEC). The experiment in a line: ATP secretion detection assay (luminescence). Type of assay: cell-based. How it is done: The bitter blocker candidates were further characterized using bitter-responsive human taste bud tissue-derived cells (hTBEC) platforms and bioassays. Bitter-responsive hTBECs were treated with hitter blocker candidates and various bitter agonists to assess the efficacy of each bitter blocker candidate in reducing the bitterness of each of the various bitter agonists.
One industry standard bitter agonist was used as a control (L-Praziquantel), and five bitter blocker controls were used (Senomyx BB68, STX-001, sodium gluconate, eridictyol, and homoeridictyol).
BB09, BB11, and BB13 were first tested at various concentrations in combination with 100 μM Dextromethorphan-HBr.
Next, bitter blocker concentration ranges were narrowed (100 μM-1,000 μM) and compared to a fixed concentration of stimulus. […] BB13 was evaluated further by real time ATP secretion detection in pooled hTBEC 66 cells treated with 300 μM Theobromine.
Each culture was treated with BB09, BB11, BB13, STX001, or Senomyx BB68, as well as either Dextromethorphan-HBr at 1000 μM (FIGS. 18A-18C), Theobromine at 1,000 μM (FIGS. 19A-19C), Rebaudioside A at 1 mM (FIGS. 20A-20C), or Caffeine at 3 mM (FIGS. 21A-21C).

Assay [2] concerns cough syrup ROBITUSSIN DM (dextromethorphan HBr and guaifenesin). The experiment in a line: Sensory evaluation: bitterness reduction of cough syrup ROBITUSSIN DM. Type of assay: in vivo. The following applies: dosage 50 or 100 ppm per sample. How it is done: (§1) The bitterness blocker candidates listed in Table 1 were prepared into a 1% sample solution with propylene glycol and heated to ensure complete solubilization. […] Individually, the respective sample solution was added to a cough syrup sold under the trade name ROBITUSSIN® DM. The bitter-tasting agents contained in the cough syrup were dextromethorphan HBr USP 20 mg and guaifenesin USP 400 mg (as measured for each 20 ml serving, or 21000 mg/l of bitter tastants in total). A trained sensory evaluator was asked to estimate the perceived bitterness reduction against the control, as well as to provide comments on how the addition of the individual sample solution modulated the taste and mouth feel profile of the resulting cough syrup.

Another assay has as its system CBD isolate nanoemulsion. The assay is described as follows: Sensory evaluation: bitterness reduction of CBD isolate. It counts as in vivo. Conditions: dosage 50 or 100 ppm per sample. How it is done: The bitterness blocker candidates listed in Table 1 were prepared into a 1% sample solution with propylene glycol and heated to ensure complete solubilization. […] A CBD isolate was emulsified into a water-soluble nanoemulsion first, to which was added the respective sample solution. […] A trained sensory evaluator was asked to estimate the perceived bitterness reduction against the control, as well as to provide comments on how the addition of the individual sample solution modulated the taste and mouth feel profile of the resulting nanoemulsion.

The test system of assay [3] is melted dark chocolate pieces with 100% dark cacao. The assay is described as follows: Sensory evaluation: bitterness reduction of dark chocolate pieces. Type of assay: in vivo. The following applies: dosage 50 or 100 ppm per sample. How it is done:
The bitterness blocker candidates listed in Table 1 were prepared into a 1% sample solution with propylene glycol and heated to ensure complete solubilization. […] Individually, the respective sample solution was added to melted dark chocolate pieces with 100% dark cacao. A trained sensory evaluator was asked to estimate the perceived bitterness reduction against the control, as well as to provide comments on how the addition of the individual sample solution modulated the taste and mouth feel profile of the resulting melted dark chocolate pieces.

In assay [4] the test system is full spectrum CBD hemp oil nanoemulsion. The experiment in a line: Sensory evaluation: bitterness reduction of full spectrum CBD hemp oil. The following applies: dosage 50 or 100 ppm per sample. Type of assay: in vivo. How it is done: The bitterness blocker candidates listed in Table 1 were prepared into a 1% sample solution with propylene glycol and heated to ensure complete solubilization. […] A full spectrum CBD hemp oil was emulsified into a water-soluble nanoemulsion first, to which was added the respective sample solution. […] A trained sensory evaluator was asked to estimate the perceived bitterness reduction against the control, as well as to provide comments on how the addition of the individual sample solution modulated the taste and mouth feel profile of the resulting oil nanoemulsion.

In the next assay the test system is 0.25% caffeine solution. The assay is described as follows: Sensory evaluation: bitterness reduction of a caffeine solution. It counts as in vivo. The following applies: one trained sensory evaluator, vs control, dosage (ppm) per sample (20 to 50-100 ppm). How it is done: The bitter blocker candidates listed in Table 1 were prepared into a 1% sample solution with propylene glycol (i.e., 1 g of bitter blocker per 100 ml of propylene glycol) and heated to ensure complete solubilization. […] A trained sensory evaluator was asked to estimate the perceived bitterness reduction against the control, as well as to provide comments on how the addition of the individual sample solution modulated the taste and mouth feel profile of the resulting caffeine solution.

The test system of another assay is dark roast coffee. The assay is described as follows: Sensory evaluation: bitterness reduction of dark roast coffee. It counts as in vivo. Conditions: dosage 50 or 100 ppm per sample. How it is done:
The bitterness blocker candidates listed in Table 1 were prepared into a 1% sample solution with propylene glycol and heated to ensure complete solubilization. […] A trained sensory evaluator was asked to estimate the perceived bitterness reduction against the control, as well as to provide comments on how the addition of the individual sample solution modulated the taste and mouth feel profile of the resulting dark roast coffee.

Assay [5] has as its system cough syrup DELSYM (dextromethorphan HBr). The experiment in a line: Sensory evaluation: bitterness reduction of cough syrup DELSYM. Type of assay: in vivo. Conditions: dosage 50 or 100 ppm per sample. How it is done: as §1, with “DELSYM®.” for “ROBITUSSIN® DM.”, “agent” for “agents”, “30” for “20 mg and guaifenesin USP 400”, “5” for “20”, “teaspoon, i.e., 6000” for “serving, or 21000”, “dextromethorphan).” for “bitter tastants in total).”

On to `COc1cc([C@@H]2CC(=O)c3c(O)cc(O)cc3O2)ccc1O[C@@H]1O[C@H](CO)[C@@H](O)[C@H](O)[C@H]1O` [BB11, Homoeriodictyol 4′-O-glucoside], for which the “Estimated % bitterness reduction” value was 60% in the assay with THC nanoemulsion (THC nanoemulsion (10 mg THC per serving)); 60% in [2] (21000 mg/l of bitter tastants); 60% with CBD isolate nanoemulsion; 60% in [3]; 60% in assay [4]; 60-80% ^ with 0.25% caffeine solution. The “Estimated % bitterness reduction” value in the assay with dark roast coffee (caffeine about 740 mg/l) was 80%; in assay [5] (6000 mg/l of dextromethorphan), 60%. Also, the Comments entry in the assay with THC nanoemulsion (THC nanoemulsion) was “Nice upfront bitterness reduction”; in assay [2] it was “Less bitter, smoother, more”; with CBD isolate nanoemulsion, “Nice upfront bitterness reduction”; in [3], “Good bitterness reduction but”; in [4], “Nice upfront bitterness reduction”; with dark roast coffee, “Nice upfront bitterness reduction”. For the same compound, the Comments entry in [5] is reported as “Less bitter, smoother, more”. In assay [1] (100 μM Dextromethorphan-HBr, various blocker concentrations (FIG. 12)), the “inhibition of luminescence activity of Dextromethorphan-HBr (ATP secretion)” value was “able to inhibit”. Besides, the “inhibition of the L-Praziquantel response (ATP secretion)” value in [1] (400 μM L-Praziquantel, pooled donor-derived hTBEC (FIG. 13)) was “showed inhibition”. Also, in assay [1] (hTBEC 66, hTBEC 56, hTBEC Donor H, Dextromethorphan-HBr at 1000 μM, Theobromine 1,000 μM, Rebaudioside A 1 mM or Caffeine 3 mM (FIGS. 18-21)), the “inhibition of the bitter agonists (ATP secretion)” value was “trends of inhibition in most cases”.
